These compounds were tested against T1, full length GRK5 (Homo sapiens, UniProt P34947) (assay: GRK5 kinase activity assay, ADP Glo Kinase Assay technology (Promega)). Conditions: group II; ADP Glo Kinase Assay (Table 9-B).
T1 construct: 6/2 fold concentrated full length GRK5 (Millipore, #14-714) in reaction buffer; purchased Millipore 14-714
Assay type: biochemical
Description: The maximal compound assay concentration was set to 100 μM, representing the compound assay concentration used in the primary screen.
Increasing concentrations of GRK5 are incubated together with 100 μM ATP in the absence and presence of 10 μM casein in a reaction buffer. Within this incubation non-phosphorylated casein is converted into phosphorylated casein and ATP is converted into ADP. Thereafter nonconverted ATP is digested into AMP by addition of the ADP-Glo™ Reagent. Subsequently the ADP that is produced by GRK5 activity is phosphorylated back to ATP by addition of Promega Kinase Detection Reagent. These ATP levels serve as measure for the GRK5 activity and are quantified by a luciferase/luciferin reaction.
For GRK5 kinase activity assay, the following protocol was used:
The reaction buffer used was composed of: 20 mM MES pH 6.0, 1 mM DTT, 10 mM MgCl2, 0.01% Tween20 and the reaction volume was 6 μL.
Firstly 4 μL 6/4 fold concentrated substrate and 6/4 fold concentrated ATP in 1 fold concentrated reaction buffer are added to each well of the assay plate. Subsequently 67 nL […] concentrated test compound in 100% DMSO are added to each well except to C− and C+ wells using pin tool. Then 67 nL 100% DMSO are pipetted to C− (no kinase, no compound) and C+ (no compound) wells using pin-tool and 2 μL reaction buffer are added to C− wells. […] After incubation for 120 min. at room temperature 6 μL ADP-Glo™ Reagent (ADP Glo™ Kinase Assay Kit: Promega, V9101) are added to each well to stop the kinase reaction and deplete the unconsumed ATP. After a second incubation for 40 min. at room temperature 12 μL of Kinase Detection Reagent are added to convert ADP to ATP and start luciferase/luciferin reaction for detection of ATP. […] Finally, after incubation for 40 min at room temperature the luminescence intensity was measured.
The activity of the compounds was classified according to IC50 for binding sites of Grk5 into the following ranges:
8800 Customer compounds were screened for their ability to inhibit the enzymatic activity of GRK5. Screening was performed using the ADP Glo™ Kinase Assay technology (Promega). The small molecular weight compounds were delivered at 10 mM stock concentration and were tested at a final assay concentration of 100 μM.
IC50 values were determined in triplicates at 12 concentrations with a dilution factor of three. Triplicates were measured on three different assay plates. The maximal compound assay concentration was set to 100 μM representing the compound assay concentration used in the primary screen. A larger maximal compound assay concentration could not be achieved since the maximal compound concentration on the compound plates was 10 mM (>1% DMSO concentration in the assay).

T1 sequence (P34947 whole entry): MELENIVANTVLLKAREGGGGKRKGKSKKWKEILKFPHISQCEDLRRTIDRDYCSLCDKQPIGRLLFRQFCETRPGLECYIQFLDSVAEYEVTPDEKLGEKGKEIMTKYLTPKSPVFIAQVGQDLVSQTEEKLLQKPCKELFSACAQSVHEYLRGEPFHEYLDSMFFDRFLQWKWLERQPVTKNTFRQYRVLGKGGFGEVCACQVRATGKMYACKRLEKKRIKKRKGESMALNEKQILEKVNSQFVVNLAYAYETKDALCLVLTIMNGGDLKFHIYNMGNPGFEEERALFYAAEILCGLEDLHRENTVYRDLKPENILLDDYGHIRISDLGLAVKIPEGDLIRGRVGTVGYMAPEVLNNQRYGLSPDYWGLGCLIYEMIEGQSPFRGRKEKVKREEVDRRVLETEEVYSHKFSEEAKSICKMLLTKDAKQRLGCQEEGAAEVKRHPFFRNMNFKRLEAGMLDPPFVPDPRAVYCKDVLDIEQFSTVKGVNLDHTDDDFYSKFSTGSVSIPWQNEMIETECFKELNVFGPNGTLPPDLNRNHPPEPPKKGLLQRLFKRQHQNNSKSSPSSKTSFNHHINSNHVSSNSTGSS

First: CCC(NC(=O)c1ccc2c(c1)/C(=C/c1[nH]c(C)c(CCC(=O)O)c1C)C(=O)N2)c1cccc(Cl)c1 (stereo not drawn) [II.134, (3Z)-3-(5-{5-[1-(3-chloro-phenyl)-propylcarbamoyl]-2-oxo-1,2-dihydro-indol-3-ylidenemethyl}-2,4-dimethyl-1H-pyrrol-3-yl)-propionic acid]
Second: Cc1[nH]c(/C=C2\C(=O)Nc3ccc(C(=O)O)cc32)c(C)c1C(=O)N[C@H](C)c1ccccc1 [II.137, (3Z)-3-[3,5-dimethyl-4-((1R)-1-phenyl-ethylcarbamoyl)-1H-pyrrol-2-ylmethylene]-2-oxo-2,3-dihydro-1H-indole-5-carboxylic acid]
The IC50 of the first is higher: 1000 to 2000 nM for the first, 100 to 1000 nM for the second. The second is the more potent here.

With `Cc1[nH]c(/C=C2\C(=O)Nc3ccc(C(=O)O)cc32)c(C)c1C(=O)NCCN1CCCC1` [II.2] the IC50 was 1000 to 2000 nM.

Same assay, conditions: group II; final assay concentration 5 μM

First: Cc1[nH]c(/C=C2\C(=O)Nc3ccc(C(=O)N[C@H](C)c4ccc(Cl)cc4)cc32)c(C)c1C(=O)N1CCCCC1 [II.66, (3Z)-N-[(1R)-1-(4-chlorophenyl)ethyl]-3-{[3,5-dimethyl-4-(piperidin-1-ylcarbonyl)-1H-pyrrol-2-yl]methylene}-2-oxoindoline-5-carboxamide]
Second: Cc1[nH]c(/C=C2\C(=O)Nc3ccc(C(=O)NCc4c(F)cccc4F)cc32)c(C)c1C(=O)NCCN1CCCCC1 [II.192, (3Z)-3-[3,5-dimethyl-4-(2-piperidin-1-yl-ethylcarbamoyl)-1H-pyrrol-2-ylmethylene]-2-oxo-2,3-dihydro-1H-indole-5-carboxylic acid 2,6-difluoro-benzylamide]
The inhibition at 5 µM of the first is lower: 76% for the first, 86% for the second.

First: Cc1[nH]c(/C=C2\C(=O)Nc3ccc(C(=O)NCc4c(F)cccc4F)cc32)c(C)c1C(=O)N1CC[C@H](N(C)C)C1 [II.190, (3Z)-3-[4-((3S)-3-dimethylamino-pyrrolidine-1-carbonyl)-3,5-dimethyl-1H-pyrrol-2-ylmethylene]-2-oxo-2,3-dihydro-1H-indole-5-carboxylic acid 2,6-difluoro-benzylamide]
Second: Cc1[nH]c(/C=C2\C(=O)Nc3ccc(C(=O)NCc4c(F)cccc4F)cc32)c(C)c1C(=O)N1CCC[C@@H]1CN1CCCC1 [II.191, (3Z)-3-[3,5-dimethyl-4-((2R)-2-pyrrolidin-1-ylmethyl-pyrrolidine-1-carbonyl)-1H-pyrrol-2-ylmethylene]-2-oxo-2,3-dihydro-1H-indole-5-carboxylic acid 2,6-difluoro-benzylamide]
The inhibition at 5 µM of the first is lower: 61% for the first, 66% for the second.

Going from `Cc1[nH]c(/C=C2\C(=O)Nc3ccc(C(=O)O)cc32)c(C)c1C(=O)NC(Cc1ccccc1)C(=O)O` (stereo in doubt) [II.153, (3Z)-3-[4-((1R)-1-carboxy-2-phenyl-ethylcarbamoyl)-3,5-dimethyl-1H-pyrrol-2-ylmethylene]-2-oxo-2,3-dihydro-1H-indole-5-carboxylic acid] to `CCOC(=O)c1c(C)[nH]c(/C=C2\C(=O)Nc3ccc(C(=O)N[C@@H](Cc4ccccc4)C(=O)OC)cc32)c1C` [II.157, (3Z)-5-[5-((1S)-1-methoxycarbonyl-2-phenyl-ethylcarbamoyl)-2-oxo-1,2-dihydro-indol-3-ylidenemethyl]-2,4-dimethyl-1H-pyrrole-3-carboxylic II. acid ester ethyl], the inhibition at 5 µM rises from 56% to 74%.

Compared with `CC[C@H](NC(=O)c1ccc2c(c1)/C(=C/c1ccc(C(=O)N3CCN(C)CC3)cc1)C(=O)N2)c1ccccc1` [II.58, (3Z)-3-{4-[(4-methylpiperazin-1-yl)carbonyl]benzylidene}-2-oxo-N-[(1S)-1-phenylpropyl]indoline-5-carboxamide], `CC[C@@H](NC(=O)c1ccc2c(c1)/C(=C/c1[nH]c(C)c(C(=O)N3CCN(C4CCN(C)CC4)CC3)c1C)C(=O)N2)c1ccccc1` [II.181, (3Z)-3-{3,5-dimethyl-4-[4-(1-methyl-piperidin-4-yl)-piperazine-1-carbonyyl]-1H-pyrrol-2-ylmethylene}-2-oxo-2,3-dihydro-1H-indole-5-carboxylic acid ((1R)-1-phenyl-propyl)-amide] is lower in inhibition at 5 µM: 96% for the first, 49% for the second.

`C[C@@H](NC(=O)c1ccc2c(c1)/C(=C/Nc1ccc(CN3CCCCC3)cc1)C(=O)N2)C1CCCCC1` [II.77, (3Z)-N-[(1R)-1-cyclohexylethyl]-2-oxo-3-({[4-(piperidin-1-ylmethyl)phenyl]amino}methylene)indoline-5-carboxamide] and `Cc1[nH]c(/C=C2\C(=O)Nc3ccc(C(=O)NCc4c(F)cccc4F)cc32)c(C)c1C(=O)N1CCC[C@H]1CN1CCCC1` [II.189, (3Z)-3-[3,5-dimethyl-4-((2S)-2-pyrrolidin-1-ylmethyl-pyrrolidine-1-carbonyl)-1H-pyrrol-2-ylmethylene]-2-oxo-2,3-dihydro-1H-indole-5-carboxylic acid 2,6-difluoro-benzylamide] are the same in inhibition at 5 µM: 98% for the first, 98% for the second.

Going from `COc1ccc([C@@H](C)NC(=O)c2ccc3c(c2)/C(=C/c2[nH]c(C)cc2C)C(=O)N3)cc1` [II.170, (3Z)-3-(3,5-dimethyl-1H-pyrrol-2-ylmethylene)-2-oxo-2,3-dihydro-1H-indole-5-carboxylic acid [(1R)-1-(4-methoxy-phenyl)-ethyl]-amide] to `COc1ccc([C@@H](C)NC(=O)c2ccc3c(c2)/C(=C/c2c[nH]c4ccccc24)C(=O)N3)cc1` [II.193, (3Z)-3-(1H-indol-3-ylmethylene)-2-oxo-2,3-dihydro-1H-indole-5-carboxylic acid [(1R)-1-(4-methoxy-phenyl)-ethyl]-amide], the inhibition at 5 µM rises from 58% to 88%.

First: Cc1[nH]c(/C=C2\C(=O)Nc3ccc(C(=O)O)cc32)c(C)c1C(=O)NC(C)C(=O)O (stereo in doubt) [II.148, (3Z)-3-[4-(1-carboxy-(1R)-ethylcarbamoyl)-3,5-dimethyl-1H-pyrrol-2-ylmethylene]-2-oxo-2,3-dihydro-1H-indole-5-carboxylic acid]
Second: COC(=O)CC[C@H](NC(=O)c1c(C)[nH]c(/C=C2\C(=O)Nc3ccc(C(=O)N[C@@H](Cc4ccccc4)C(=O)OC)cc32)c1C)C(=O)OC [II.167, (3Z)-2-({5-[5-((1S)-1-methoxycarbonyl-2-phenyl-ethylcarbamoyl)-2-oxo-1,2-dihydro-indol-3-ylidenemethyl]-2,4-dimethyl-1H-pyrrole-3-carbonyl}-amino)-(S)-pentanedioic acid dimethyl ester]
The inhibition at 5 µM of the first is lower: 48% for the first, 81% for the second.

`Cc1[nH]c(/C=C2\C(=O)Nc3ccc(C(=O)NCc4c(F)ccc(Cl)c4F)cc32)c(C)c1C(=O)N1CCC[C@H]1CN1CCCC1` [II.187, (3Z)-3-[3,5-dimethyl-4-((2S)-2-pyrrolidin-1-ylmethyl-pyrrolidine-1-carbonyl)-1H-pyrrol-2-ylmethylene]-2-oxo-2,3-dihydro-1H-indole-5-carboxylic acid 3-chloro-2,6-difluoro-benzylamide] was tested, and the inhibition at 5 µM was 76%.

Reference: patent US9458463B2, “Method for treatment of diabetes by a small molecule inhibitor for GRK5” (MAX-PLANCK-GESELLSCHAFT ZUR FÖRDERUNG DER WISSENSCHAFTEN …, priority 2010, dated 2016)
